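Test compounds were applied to cells in 96-well plates for 48 hours at 5 doses. GI50 = concentration required for 50% inhibition of growth.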 Activity calls are given as the source filed them. Rule as the data show it: active = GI50 up to about 1.1 µM and inactive = higher.
Key:
Experiment in all cases: growth of human tumour cells (NCI), 48 h
786-0 = test system: 786-0
A498 = test system: A498
A549 = test system: A549
ACHN = test system: ACHN
CAKI-1 = test system: CAKI-1
COLO 205 = test system: COLO 205
DU-145 = test system: DU-145
EKVX = test system: EKVX
HCT-116 = test system: HCT-116
HCT-15 = test system: HCT-15
HL-60 = test system: HL-60
HOP-62 = test system: HOP-62
HOP-92 = test system: HOP-92
HT-29 = test system: HT-29
Hs-578T = test system: Hs-578T
IGROV-1 = test system: IGROV-1
K562 = test system: K562
KM12 = test system: KM12
LOX IMVI = test system: LOX IMVI
M14 = test system: M14
MCF7 = test system: MCF7
MDA-MB-231 = test system: MDA-MB-231
MDA-MB-435 = test system: MDA-MB-435
MDA-N = test system: MDA-N
MOLT-4 = test system: MOLT-4
Malme-3M = test system: Malme-3M
NCI-H226 = test system: NCI-H226
NCI-H23 = test system: NCI-H23
NCI-H460 = test system: NCI-H460
NCI-H522 = test system: NCI-H522
NCI/ADR-RES = test system: NCI/ADR-RES
OVCAR-3 = test system: OVCAR-3
OVCAR-4 = test system: OVCAR-4
OVCAR-5 = test system: OVCAR-5
OVCAR-8 = test system: OVCAR-8
PC-3 = test system: PC-3
RPMI-8226 = test system: RPMI-8226
RXF 393 = test system: RXF 393
SF-268 = test system: SF-268
SF-295 = test system: SF-295
SF-539 = test system: SF-539
SK-MEL-28 = test system: SK-MEL-28
SK-MEL-2 = test system: SK-MEL-2
SK-MEL-5 = test system: SK-MEL-5
SN12C = test system: SN12C
SNB-19 = test system: SNB-19
SR = test system: SR
SW-620 = test system: SW-620
T47D = test system: T47D
TK-10 = test system: TK-10
U-251 = test system: U-251
UACC-257 = test system: UACC-257
UACC-62 = test system: UACC-62
UO-31 = test system: UO-31
CCRF-CEM = test system: CCRF-CEM
HCC 2998 = test system: HCC 2998
SK-OV-3 = test system: SK-OV-3
SNB-75 = test system: SNB-75

SMILES: N[C@H]1CCN(c2c(F)cc3c(=O)c(C(=O)O)cn4c3c2Oc2c-4ccc3c2ccc2ccccc23)C1
- GI50 (786-0): 0.128 µM (active)
- GI50 (A498): 10.4 µM (inactive)
- GI50 (A549): 1.12 µM (inactive)
- GI50 (ACHN): 0.23 µM (active)
- GI50 (CAKI-1): 2.79 µM (inactive)
- GI50 (COLO 205): 1.13 µM (inactive)
- GI50 (DU-145): 0.942 µM (active)
- GI50 (EKVX): 0.377 µM (active)
- GI50 (HCT-116): 0.492 µM (active)
- GI50 (HCT-15): 0.364 µM
- GI50 (HL-60): 4.21 µM (inactive)
- GI50 (HOP-62): 1.07 µM (active)
- GI50 (HOP-92): 2.46 µM (inactive)
- GI50 (HT-29): 0.117 µM (active)
- GI50 (Hs-578T): 0.731 µM (active)
- GI50 (IGROV-1): 0.284 µM (active)
- GI50 (K562): 0.583 µM (active)
- GI50 (KM12): 1 µM (active)
- GI50 (LOX IMVI): 0.56 µM (active)
- GI50 (M14): 2.15 µM (inactive)
- GI50 (MCF7): 0.817 µM (active)
- GI50 (MDA-MB-231): 4.91 µM (inactive)
- GI50 (MDA-MB-435): 1.05 µM (active)
- GI50 (MDA-N): 0.767 µM (active)
- GI50 (MOLT-4): 0.0643 µM (active)
- GI50 (Malme-3M): 16.9 µM (inactive)
- GI50 (NCI-H226): 4.02 µM (inactive)
- GI50 (NCI-H23): 1.22 µM (inactive)
- GI50 (NCI-H460): 0.115 µM (active)
- GI50 (NCI-H522): 0.498 µM (active)
- GI50 (NCI/ADR-RES): 2.8 µM (inactive)
- GI50 (OVCAR-3): 13.1 µM (inactive)
- GI50 (OVCAR-4): 0.535 µM (active)
- GI50 (OVCAR-5): 1.58 µM (inactive)
- GI50 (OVCAR-8): 0.664 µM (active)
- GI50 (PC-3): 0.935 µM (active)
- GI50 (RPMI-8226): 0.226 µM (active)
- GI50 (RXF 393): 0.255 µM (active)
- GI50 (SF-268): 0.288 µM (active)
- GI50 (SF-295): 1.48 µM (inactive)
- GI50 (SF-539): 1.25 µM (inactive)
- GI50 (SK-MEL-28): 2.52 µM (inactive)
- GI50 (SK-MEL-2): 9.77 µM (inactive)
- GI50 (SK-MEL-5): 0.776 µM (active)
- GI50 (SN12C): 0.774 µM (active)
- GI50 (SNB-19): 1.33 µM (inactive)
- GI50 (SR): 0.0532 µM (active)
- GI50 (SW-620): 0.276 µM (active)
- GI50 (T47D): 2.65 µM (inactive)
- GI50 (TK-10): 0.408 µM (active)
- GI50 (U-251): 0.121 µM (active)
- GI50 (UACC-257): 0.288 µM (active)
- GI50 (UACC-62): 5.68 µM (inactive)
- GI50 (UO-31): 1.64 µM (inactive)

SMILES: N#CCC1C2CC3C(C2=O)C13 (stereo unspecified)
- GI50 (786-0): > 100 µM (inactive)
- GI50 (A498): > 100 µM (inactive)
- GI50 (A549): > 100 µM (inactive)
- GI50 (ACHN): > 100 µM (inactive)
- GI50 (CAKI-1): > 100 µM (inactive)
- GI50 (CCRF-CEM): > 100 µM (inactive)
- GI50 (COLO 205): > 100 µM (inactive)
- GI50 (DU-145): > 100 µM (inactive)
- GI50 (EKVX): > 100 µM (inactive)
- GI50 (HCC 2998): > 100 µM (inactive)
- GI50 (HCT-116): > 100 µM (inactive)
- GI50 (HCT-15): > 100 µM
- GI50 (HOP-62): > 100 µM (inactive)
- GI50 (HOP-92): > 100 µM (inactive)
- GI50 (HT-29): > 100 µM (inactive)
- GI50 (Hs-578T): > 100 µM (inactive)
- GI50 (IGROV-1): > 100 µM (inactive)
- GI50 (K562): > 100 µM (inactive)
- GI50 (KM12): > 100 µM (inactive)
- GI50 (LOX IMVI): > 100 µM (inactive)
- GI50 (M14): > 100 µM (inactive)
- GI50 (MCF7): > 100 µM (inactive)
- GI50 (MDA-MB-231): > 100 µM (inactive)
- GI50 (MDA-MB-435): > 100 µM (inactive)
- GI50 (MDA-N): > 100 µM (inactive)
- GI50 (MOLT-4): > 100 µM (inactive)
- GI50 (Malme-3M): > 100 µM (inactive)
- GI50 (NCI-H226): > 100 µM (inactive)
- GI50 (NCI-H23): > 100 µM (inactive)
- GI50 (NCI-H460): > 100 µM (inactive)
- GI50 (NCI-H522): > 100 µM (inactive)
- GI50 (NCI/ADR-RES): > 100 µM (inactive)
- GI50 (OVCAR-3): > 100 µM (inactive)
- GI50 (OVCAR-4): > 100 µM (inactive)
- GI50 (OVCAR-5): > 100 µM (inactive)
- GI50 (OVCAR-8): > 100 µM (inactive)
- GI50 (PC-3): > 100 µM (inactive)
- GI50 (RPMI-8226): > 100 µM (inactive)
- GI50 (RXF 393): > 100 µM (inactive)
- GI50 (SF-268): > 100 µM (inactive)
- GI50 (SF-295): > 100 µM (inactive)
- GI50 (SF-539): > 100 µM (inactive)
- GI50 (SK-MEL-28): > 100 µM (inactive)
- GI50 (SK-MEL-2): > 100 µM (inactive)
- GI50 (SK-MEL-5): > 100 µM (inactive)
- GI50 (SK-OV-3): > 100 µM (inactive)
- GI50 (SN12C): > 100 µM (inactive)
- GI50 (SNB-19): > 100 µM (inactive)
- GI50 (SNB-75): > 100 µM (inactive)
- GI50 (SR): > 100 µM (inactive)
- GI50 (SW-620): > 100 µM (inactive)
- GI50 (T47D): > 100 µM (inactive)
- GI50 (TK-10): > 100 µM (inactive)
- GI50 (U-251): > 100 µM (inactive)
- GI50 (UACC-257): > 100 µM (inactive)
- GI50 (UACC-62): > 100 µM (inactive)
- GI50 (UO-31): > 100 µM (inactive)

Reference: ChEMBL document CHEMBL1201862, “PubChem BioAssay data set” (2004)
